Format in all cases: cell-based
For test [1], the system named is Candida albicans. Briefly: MIC, microdilution in broth (CLSI M27-A), vaginally isolated strains. Background: Dilution methods test growth across graded concentrations, often in twofold steps.
Test [2] deals with Methicillin-resistant Staphylococcus aureus. Briefly: MIC, micro-dilution in culture broth (CLSI M 7-A5), vaginally isolated strains.
Test [3] relates to Gardnerella vaginalis. Briefly: MIC, broth dilution (CLSI M11-A4), vaginally isolated strains.
In test [4] the test system is Trichomonas vaginalis. Briefly: MIC on Diamond's medium, loss of motility, vaginally isolated strains.

Values after ≈ are worked out from the molar mass of the structure shown. Where only a bound is given, the exact number is not on record here.

These results are taken from patent publication US20130108717A1, “COMPOSITIONS FOR THE TREATMENT OF GYNAECOLOGICAL DISORDERS” (INDENA S.P.A., priority 2010, published 2013).

`CC1(C)[C@@H](O)CC[C@]2(C)[C@H]3C(=O)C=C4[C@@H]5C[C@@](C)(C(=O)O)CC[C@]5(C)CC[C@@]4(C)[C@]3(C)CC[C@@H]12` [18-beta-glycyrrhetic acid, 18β-glycyrrhetic acid]: the MIC in test [1] (Candida albicans 1) is 667 µg/mL (≈ 1420 µM); in test [1] (Candida albicans 2), 667 µg/mL (≈ 1420 µM); in test [1] (Candida albicans 3), 667 µg/mL (≈ 1420 µM); in test [1] (Candida albicans 4), 667 µg/mL (≈ 1420 µM); in test [1] (Candida albicans 5), 333 µg/mL (≈ 707 µM); in test [2] (S. aureus Met R 1), above 1333 µg/mL. Further, the MIC in test [2] (S. aureus Met R 2) is above 1333 µg/mL; in test [2] (S. aureus Met R 3), 1333 µg/mL (≈ 2830 µM); in test [2] (S. aureus Met R 4), 1333 µg/mL (≈ 2830 µM); in test [2] (S. aureus Met R 5), above 1333 µg/mL; in test [3] (Gardnerella vaginalis 1), 667 µg/mL (≈ 1420 µM); in test [3] (Gardnerella vaginalis 2), 667 µg/mL (≈ 1420 µM). Also, the MIC turned out to be 333 µg/mL (≈ 707 µM) in test [3] (Gardnerella vaginalis 3); 167 µg/mL (≈ 355 µM) in test [3] (Gardnerella vaginalis 4); 667 µg/mL (≈ 1420 µM) in test [3] (Gardnerella vaginalis 5); 667 µg/mL (≈ 1420 µM) in test [3] (Gardnerella vaginalis 6); 167 µg/mL (≈ 355 µM) in test [3] (Gardnerella vaginalis 7); 333 µg/mL (≈ 707 µM) in test [3] (Gardnerella vaginalis 8). For the same molecule, the MIC turned out to be 333 µg/mL (≈ 707 µM) in test [3] (Gardnerella vaginalis 9); 167 µg/mL (≈ 355 µM) in test [3] (Gardnerella vaginalis 10); 150 µg/mL (≈ 319 µM) in test [4] (Trichomonas vaginalis 1); 150 µg/mL (≈ 319 µM) in test [4] (Trichomonas vaginalis 2); 150 µg/mL (≈ 319 µM) in test [4] (Trichomonas vaginalis 3); 150 µg/mL (≈ 319 µM) in test [4] (Trichomonas vaginalis 4).
